Experimental data from ChEMBL document CHEMBL5465560, “Selectivity Literature for EUbOPEN Chemogenomic Library” (2024).

Legend:
Aurora kinase B = Aurora kinase B (Homo sapiens, UniProt Q96GD4); test: Selectivity interaction (Kinase panel (KiNativ target engagement assay in Jurkat cells)) EUB0001635a AURKB; type: cell-based; conditions: Selectivity number of off-targets 0.0, Selectivity number of targets 233.0, Source Knowledge https://www.sciencedirect.com/science/article/pii/S2451945619300674?via%3Dihub, at 1 µM
[1] = target: Protein arginine N-methyltransferase 8 (Homo sapiens, UniProt Q9NR22); conditions: at 1 µM
[2] = target: LIM domain kinase 1 (Homo sapiens) (UniProt P53667); test: Selectivity interaction (KinomeScan (DiscoverX)) EUB0000045b LIMK1
[3] = target: T1, Ribosomal protein S6 kinase alpha-1 (Homo sapiens, UniProt Q15418); test: Selectivity interaction (KinomeScan (DiscoverX)) EUB0000695a RPS6KA1; conditions: at 100 nM
[4] = target: Tyrosine-protein kinase Fes/Fps (Homo sapiens) (UniProt P07332); test: Selectivity interaction (KinomeScan (DiscoverX)) EUB0001079a FES; conditions: at 1 µM
[5] = target: Ribosomal protein S6 kinase alpha-2 (Homo sapiens) (UniProt Q15349); test: Selectivity interaction (Kinase panel (Z-LYTE Assay)) EUB0001632a RPS6KA2; conditions: at 10 µM
[6] = target: T2, Dual serine/threonine and tyrosine protein kinase (Homo sapiens) (UniProt Q6XUX3); test: Selectivity interaction (KinomeScan (DiscoverX)) EUB0000666a DSTYK; conditions: at 10 µM
T2 sequence (whole entry): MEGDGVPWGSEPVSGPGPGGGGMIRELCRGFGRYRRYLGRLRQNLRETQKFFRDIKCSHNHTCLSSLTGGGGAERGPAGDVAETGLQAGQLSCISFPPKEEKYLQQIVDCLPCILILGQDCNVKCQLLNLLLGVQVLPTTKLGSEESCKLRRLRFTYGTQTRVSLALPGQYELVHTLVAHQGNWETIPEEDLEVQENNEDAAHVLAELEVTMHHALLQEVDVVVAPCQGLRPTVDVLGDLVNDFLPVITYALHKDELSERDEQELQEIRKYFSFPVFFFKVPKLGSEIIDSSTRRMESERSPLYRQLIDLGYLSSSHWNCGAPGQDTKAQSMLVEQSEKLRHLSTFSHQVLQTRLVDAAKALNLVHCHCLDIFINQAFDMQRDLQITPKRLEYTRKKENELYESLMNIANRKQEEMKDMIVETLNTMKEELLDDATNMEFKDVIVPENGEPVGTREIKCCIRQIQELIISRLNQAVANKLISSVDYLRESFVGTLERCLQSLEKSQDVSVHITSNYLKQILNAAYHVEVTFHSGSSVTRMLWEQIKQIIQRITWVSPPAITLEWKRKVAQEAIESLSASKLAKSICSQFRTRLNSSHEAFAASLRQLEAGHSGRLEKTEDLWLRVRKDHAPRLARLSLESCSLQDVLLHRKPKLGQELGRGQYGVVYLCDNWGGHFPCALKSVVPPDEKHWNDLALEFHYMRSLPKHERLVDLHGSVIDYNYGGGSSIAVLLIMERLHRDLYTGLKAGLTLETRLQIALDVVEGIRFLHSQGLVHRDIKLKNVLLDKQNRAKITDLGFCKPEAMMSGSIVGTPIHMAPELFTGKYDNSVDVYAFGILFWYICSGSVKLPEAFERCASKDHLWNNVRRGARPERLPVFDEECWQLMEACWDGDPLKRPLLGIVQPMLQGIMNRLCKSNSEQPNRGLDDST

[7] = target: T1, Ribosomal protein S6 kinase alpha-1; test: Selectivity interaction (KinomeScan (DiscoverX)) EUB0000666a RPS6KA1; conditions: at 10 µM
[8] = target: N-lysine methyltransferase SMYD2 (Homo sapiens) (UniProt Q9NRG4); test: Selectivity interaction (Methyltransferase screen (radiometric assays, panel of 8 PRMTs, 21 protein lysine methyltransferases, 3 DNA methyltransferases, and one RNA methyltransferase)) EUB0000271b SMYD2
[9] = target: Serine/threonine-protein kinase MARK1 (Homo sapiens) (UniProt Q9P0L2); test: Selectivity interaction (Kinase screening (Nanosyn)) EUB0000604a MARK1
[10] = target: Angiopoietin-1 receptor (Homo sapiens) (UniProt Q02763); test: Selectivity interaction (Kinase screening (Nanosyn)) EUB0000604a TEK
[11] = target: Mitogen-activated protein kinase kinase kinase 4 (Homo sapiens) (UniProt Q9Y6R4); test: Selectivity interaction (KinomeScan (DiscoverX)) EUB0001049a MAP3K4; conditions: at 1 µM
[12] = target: T3, Serine/threonine-protein kinase Sgk1 (Homo sapiens) (UniProt O00141); test: Selectivity interaction (KinomeScan (DiscoverX)) EUB0001049a SGK1; conditions: at 1 µM
T3 sequence (whole entry): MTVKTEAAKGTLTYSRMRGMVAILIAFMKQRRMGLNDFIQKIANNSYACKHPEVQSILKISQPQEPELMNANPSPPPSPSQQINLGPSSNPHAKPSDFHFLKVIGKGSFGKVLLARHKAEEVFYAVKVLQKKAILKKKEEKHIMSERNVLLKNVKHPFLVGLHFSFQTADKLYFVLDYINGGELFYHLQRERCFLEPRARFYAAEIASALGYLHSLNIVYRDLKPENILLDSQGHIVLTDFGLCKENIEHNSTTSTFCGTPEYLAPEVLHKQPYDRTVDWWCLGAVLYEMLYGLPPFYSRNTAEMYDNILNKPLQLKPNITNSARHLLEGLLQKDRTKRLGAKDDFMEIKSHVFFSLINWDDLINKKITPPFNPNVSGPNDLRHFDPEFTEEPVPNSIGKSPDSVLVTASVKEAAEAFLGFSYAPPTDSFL

[13] = target: 5-hydroxytryptamine receptor 1B (Homo sapiens) (UniProt P28222); test: Selectivity interaction (Panel of kinases, GPCRs, ion channels and transporters (enzymatic assay)) EUB0000223bCl HTR1B
[14] = target: Calcium/calmodulin-dependent protein kinase kinase 2 (Homo sapiens) (UniProt Q96RR4); test: Selectivity interaction (KinomeScan (DiscoverX)) EUB0001619a CAMKK2; conditions: at 1 µM
[15] = target: Mitogen-activated protein kinase kinase kinase 20 (Homo sapiens) (UniProt Q9NYL2); test: Selectivity interaction (KinomeScan (DiscoverX)) EUB0001619a MAP3K20; conditions: at 1 µM
[16] = target: Receptor tyrosine-protein kinase erbB-2 (Homo sapiens, UniProt P04626); test: Selectivity interaction (KinomeScan (DiscoverX)) EUB0000607a ERBB2; conditions: at 10 µM
[17] = target: [Pyruvate dehydrogenase (acetyl-transferring)] kinase isozyme 1, mitochondrial (Homo sapiens, UniProt Q15118); test: Selectivity interaction (SelectScreen profiling (Invitrogen)) EUB0000607a PDK1; conditions: at 2 µM
[18] = target: Serine/threonine-protein kinase PLK3 (Homo sapiens, UniProt Q9H4B4); test: Selectivity interaction (KinomeScan (DiscoverX)) EUB0000618a PLK3; conditions: at 10 µM
[19] = target: Leucine-rich repeat serine/threonine-protein kinase 2 (Homo sapiens, UniProt Q5S007); test: Selectivity interaction (Kinase panel (Invitrogen)) EUB0000639a LRRK2; conditions: at 200 nM

Sequence of LIM domain kinase 1 (Homo sapiens) (P53667 whole entry, looked up, the tested form may be a part): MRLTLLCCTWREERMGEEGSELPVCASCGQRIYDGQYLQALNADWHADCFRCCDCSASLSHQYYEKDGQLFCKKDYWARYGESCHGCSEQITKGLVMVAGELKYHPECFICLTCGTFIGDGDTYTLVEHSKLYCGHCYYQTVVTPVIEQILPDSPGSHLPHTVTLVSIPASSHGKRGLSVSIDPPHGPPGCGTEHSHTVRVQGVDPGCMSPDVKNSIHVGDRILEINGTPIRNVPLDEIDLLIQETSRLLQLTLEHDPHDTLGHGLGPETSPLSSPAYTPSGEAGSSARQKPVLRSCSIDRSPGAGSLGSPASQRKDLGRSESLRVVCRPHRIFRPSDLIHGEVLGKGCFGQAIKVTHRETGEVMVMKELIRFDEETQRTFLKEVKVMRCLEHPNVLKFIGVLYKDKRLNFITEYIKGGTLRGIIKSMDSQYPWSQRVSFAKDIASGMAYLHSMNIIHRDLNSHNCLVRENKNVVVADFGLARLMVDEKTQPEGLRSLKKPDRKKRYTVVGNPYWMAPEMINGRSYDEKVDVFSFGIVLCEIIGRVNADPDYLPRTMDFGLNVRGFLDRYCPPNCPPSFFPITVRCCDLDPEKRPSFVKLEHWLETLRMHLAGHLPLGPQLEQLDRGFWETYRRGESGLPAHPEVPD
T1 sequence (Q15418 whole entry): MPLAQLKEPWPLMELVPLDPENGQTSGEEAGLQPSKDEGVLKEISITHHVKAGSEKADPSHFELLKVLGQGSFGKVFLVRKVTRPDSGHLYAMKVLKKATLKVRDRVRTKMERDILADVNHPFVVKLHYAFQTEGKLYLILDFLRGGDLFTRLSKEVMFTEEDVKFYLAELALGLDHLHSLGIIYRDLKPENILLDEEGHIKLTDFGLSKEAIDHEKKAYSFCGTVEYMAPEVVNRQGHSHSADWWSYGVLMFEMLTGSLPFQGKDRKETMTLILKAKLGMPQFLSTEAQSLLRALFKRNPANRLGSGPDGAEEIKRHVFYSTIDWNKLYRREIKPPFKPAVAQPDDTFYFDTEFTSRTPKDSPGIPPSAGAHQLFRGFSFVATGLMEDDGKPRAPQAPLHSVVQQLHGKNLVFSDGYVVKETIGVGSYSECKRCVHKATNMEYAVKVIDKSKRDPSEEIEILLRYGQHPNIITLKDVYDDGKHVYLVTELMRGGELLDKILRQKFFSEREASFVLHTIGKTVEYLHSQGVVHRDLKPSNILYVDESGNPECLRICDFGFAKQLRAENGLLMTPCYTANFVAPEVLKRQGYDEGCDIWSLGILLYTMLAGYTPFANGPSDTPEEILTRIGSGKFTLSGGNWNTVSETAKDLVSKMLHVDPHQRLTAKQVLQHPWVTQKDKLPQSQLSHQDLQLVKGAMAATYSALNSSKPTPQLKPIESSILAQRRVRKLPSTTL
Sequence of N-lysine methyltransferase SMYD2 (Homo sapiens) (Q9NRG4 whole entry): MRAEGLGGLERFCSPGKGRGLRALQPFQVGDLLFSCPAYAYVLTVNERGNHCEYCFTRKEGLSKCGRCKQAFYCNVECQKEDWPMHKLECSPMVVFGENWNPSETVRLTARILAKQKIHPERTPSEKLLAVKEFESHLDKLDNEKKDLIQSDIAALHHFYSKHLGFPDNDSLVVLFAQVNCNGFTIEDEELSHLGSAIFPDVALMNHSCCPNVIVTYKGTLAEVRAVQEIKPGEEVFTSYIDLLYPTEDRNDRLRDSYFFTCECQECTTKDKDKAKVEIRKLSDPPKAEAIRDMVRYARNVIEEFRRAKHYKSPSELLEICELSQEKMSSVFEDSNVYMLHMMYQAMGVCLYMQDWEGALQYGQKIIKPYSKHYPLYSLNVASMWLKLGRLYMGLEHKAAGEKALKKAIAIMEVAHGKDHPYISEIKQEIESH
Sequence of Tyrosine-protein kinase Fes/Fps (Homo sapiens) (P07332 whole entry): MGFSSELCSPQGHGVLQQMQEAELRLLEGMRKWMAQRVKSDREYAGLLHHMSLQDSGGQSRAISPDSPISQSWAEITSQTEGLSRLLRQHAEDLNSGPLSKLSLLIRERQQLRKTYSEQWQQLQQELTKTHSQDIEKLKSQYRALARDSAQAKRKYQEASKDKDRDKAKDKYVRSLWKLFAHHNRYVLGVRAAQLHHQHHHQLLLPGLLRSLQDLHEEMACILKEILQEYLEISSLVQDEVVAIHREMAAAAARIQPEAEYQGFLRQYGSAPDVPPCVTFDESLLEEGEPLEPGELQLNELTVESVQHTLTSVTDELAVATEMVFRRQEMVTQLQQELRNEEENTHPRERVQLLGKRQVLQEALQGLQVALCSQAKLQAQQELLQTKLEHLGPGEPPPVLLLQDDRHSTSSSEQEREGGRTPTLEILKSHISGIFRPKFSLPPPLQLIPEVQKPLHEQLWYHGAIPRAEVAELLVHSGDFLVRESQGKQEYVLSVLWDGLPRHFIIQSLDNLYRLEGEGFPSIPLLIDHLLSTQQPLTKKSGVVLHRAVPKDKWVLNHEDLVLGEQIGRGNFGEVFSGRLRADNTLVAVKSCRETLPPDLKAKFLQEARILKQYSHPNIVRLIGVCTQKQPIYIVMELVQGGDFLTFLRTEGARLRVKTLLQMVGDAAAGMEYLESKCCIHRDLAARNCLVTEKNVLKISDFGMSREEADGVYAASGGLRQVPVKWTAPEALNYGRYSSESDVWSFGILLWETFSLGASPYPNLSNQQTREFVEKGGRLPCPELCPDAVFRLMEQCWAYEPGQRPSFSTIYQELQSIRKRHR
Sequence of Protein arginine N-methyltransferase 8 (Q9NR22 2-394 limits assumed): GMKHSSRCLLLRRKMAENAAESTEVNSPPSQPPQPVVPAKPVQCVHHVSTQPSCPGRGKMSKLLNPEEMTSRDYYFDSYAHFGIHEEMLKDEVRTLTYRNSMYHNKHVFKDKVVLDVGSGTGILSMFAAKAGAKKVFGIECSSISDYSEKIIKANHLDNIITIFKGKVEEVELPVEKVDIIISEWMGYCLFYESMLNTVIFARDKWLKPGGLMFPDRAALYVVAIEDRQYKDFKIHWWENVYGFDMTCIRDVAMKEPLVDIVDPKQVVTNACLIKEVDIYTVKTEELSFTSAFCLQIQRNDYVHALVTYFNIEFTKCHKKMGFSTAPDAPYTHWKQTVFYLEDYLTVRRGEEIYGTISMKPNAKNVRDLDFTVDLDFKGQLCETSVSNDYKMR
Sequence of Angiopoietin-1 receptor (Homo sapiens) (Q02763 whole entry): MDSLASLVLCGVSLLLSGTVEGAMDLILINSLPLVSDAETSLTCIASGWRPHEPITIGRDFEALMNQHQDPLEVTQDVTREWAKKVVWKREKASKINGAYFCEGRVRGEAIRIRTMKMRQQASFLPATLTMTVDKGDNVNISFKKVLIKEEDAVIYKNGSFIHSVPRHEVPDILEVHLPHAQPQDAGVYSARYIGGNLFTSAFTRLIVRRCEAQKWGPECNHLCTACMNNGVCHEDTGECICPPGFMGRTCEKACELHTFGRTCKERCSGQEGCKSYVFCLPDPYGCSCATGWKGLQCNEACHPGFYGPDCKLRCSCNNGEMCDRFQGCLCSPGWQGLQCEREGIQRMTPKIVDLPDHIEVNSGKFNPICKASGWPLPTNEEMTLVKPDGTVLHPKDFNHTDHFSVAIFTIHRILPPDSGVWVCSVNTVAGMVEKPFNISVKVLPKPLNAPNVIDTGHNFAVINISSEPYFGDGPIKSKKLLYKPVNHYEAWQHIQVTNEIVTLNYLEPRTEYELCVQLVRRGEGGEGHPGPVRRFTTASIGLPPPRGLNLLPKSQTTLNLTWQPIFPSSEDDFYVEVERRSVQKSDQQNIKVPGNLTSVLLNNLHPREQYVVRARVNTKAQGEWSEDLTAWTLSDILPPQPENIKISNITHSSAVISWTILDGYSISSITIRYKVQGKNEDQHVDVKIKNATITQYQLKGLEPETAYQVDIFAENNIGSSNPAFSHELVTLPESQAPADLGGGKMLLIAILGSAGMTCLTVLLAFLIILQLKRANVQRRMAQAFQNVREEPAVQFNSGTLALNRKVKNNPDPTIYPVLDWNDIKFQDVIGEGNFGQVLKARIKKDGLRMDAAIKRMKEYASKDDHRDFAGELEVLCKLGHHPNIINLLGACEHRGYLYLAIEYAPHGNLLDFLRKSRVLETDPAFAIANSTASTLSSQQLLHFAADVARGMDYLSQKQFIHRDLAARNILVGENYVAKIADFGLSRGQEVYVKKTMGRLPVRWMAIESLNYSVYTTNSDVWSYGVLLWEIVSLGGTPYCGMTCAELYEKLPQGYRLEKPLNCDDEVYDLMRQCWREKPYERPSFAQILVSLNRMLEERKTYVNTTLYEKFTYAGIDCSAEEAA
Sequence of 5-hydroxytryptamine receptor 1B (Homo sapiens) (P28222 whole entry): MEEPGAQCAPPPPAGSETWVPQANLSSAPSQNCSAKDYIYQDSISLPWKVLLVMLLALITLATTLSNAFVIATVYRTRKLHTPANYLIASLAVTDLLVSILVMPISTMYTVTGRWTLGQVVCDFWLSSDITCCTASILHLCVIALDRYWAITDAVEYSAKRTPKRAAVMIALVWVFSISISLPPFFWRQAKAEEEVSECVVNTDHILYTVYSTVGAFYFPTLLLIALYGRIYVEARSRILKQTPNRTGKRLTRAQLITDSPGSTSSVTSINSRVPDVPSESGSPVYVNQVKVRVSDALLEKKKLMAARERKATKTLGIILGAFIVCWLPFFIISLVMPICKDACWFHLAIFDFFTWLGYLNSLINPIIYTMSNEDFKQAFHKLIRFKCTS
Sequence of Aurora kinase B (Q96GD4 whole entry): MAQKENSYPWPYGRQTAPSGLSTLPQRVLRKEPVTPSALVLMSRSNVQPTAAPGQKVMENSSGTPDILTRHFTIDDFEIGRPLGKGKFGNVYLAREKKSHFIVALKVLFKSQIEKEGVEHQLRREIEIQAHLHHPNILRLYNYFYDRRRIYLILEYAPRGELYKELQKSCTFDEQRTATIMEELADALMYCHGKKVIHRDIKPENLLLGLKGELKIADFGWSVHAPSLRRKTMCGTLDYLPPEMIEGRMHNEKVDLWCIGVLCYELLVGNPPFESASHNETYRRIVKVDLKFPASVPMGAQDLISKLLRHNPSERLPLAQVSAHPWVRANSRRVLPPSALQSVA

For C=CC(=O)Nc1ccc(C(=O)Nc2[nH]nc3c2CN(C(=O)N[C@H](CN(C)C)c2ccccc2)C3(C)C)cc1, the % of engagement (Aurora kinase B) was 23%.
For CNCCN1CCC(c2cc(CN(C)C(=O)c3cccc(Oc4ccccc4)c3)ccn2)CC1, the % activity [1] was > 90%.
C=CC(=O)Nc1cc(-n2c(=O)ccc3cnc4ccc(-c5ccc(NS(C)(=O)=O)cc5)cc4c32)ccc1C was tested, and the % of control ([2]; at 1 µM) was 100% and the % of control ([2]; at 10 µM) was 95%.
Cc1cc(F)c(C(=O)Nc2cccc(-c3nncn3C(C)C)n2)cc1-n1cnc(C2CC2)c1 gave a % of control [3] of 100%.
Compound Nc1cnc(N2CCc3cc(S(=O)(=O)Nc4c(F)cc(Cl)cc4F)cc(N4CCCC4=O)c32)nc1 [TP-020n] has a % of control [4] of 100%.
In the case of Cn1cc(-n2cnc3c(NCc4nc5cc(Cl)c(Cl)cc5[nH]4)nc(N4CCOCC4)nc32)cn1, the % of control [5] is reported as 1.22%.
O=C(NOC[C@H](O)CO)c1ccc(F)c(F)c1Nc1ccc(I)cc1F gave a % of control [6] of 100% and a % of control [7] of 84%.
In the case of Cc1cc(C)cc([C@@H]2c3cc(C)ccc3NC(=O)CN2C(=O)c2ccc(Br)s2)c1, the % of activity ([8]; at 1 µM) is reported as 101% and the % of activity ([8]; at 10 µM) is reported as 96.7%.
Work on Cc1cnc(Nc2ccc(F)cc2Cl)nc1-c1c[nH]c(C(=O)N[C@H](CO)c2cccc(Cl)c2)c1 yielded a % of inhibition [9] of 12% and a % of inhibition [10] of 0%.
Compound COc1cc(Nc2nc(C)cc(-c3cnn4nc(OC)ccc34)n2)cc(C(F)(F)F)c1 has a % of control [11] of 87% and a % of control [12] of 94%.
Compound COc1cc(C(=O)N2CC[C@@H](O)[C@@H](N)C2)cc2nc(-c3cc4ccccc4n3CC3CC3)n(C)c12 has a pXC50 [13] of 4.7 M.
Work on N#Cc1cccc(-c2c[nH]c3ncnc(N4CCOCC4)c23)c1 yielded a % of control [14] of 78% and a % of control [15] of 86%.
With CNC(=O)Nc1ccc(-c2nc(N3CC4CCC(C3)O4)c3cnn(C4CCC5(CC4)OCCO5)c3n2)cc1 the % of control [16] was 88% and the % of inhibition [17] was 3%.
Work on O[C@H]1CC[C@H](Nc2ncc3nc(Nc4c(F)cc(F)cc4F)n([C@H]4CCOC4)c3n2)CC1 yielded a % of control [18] of 100%.
CC[C@@H]1[C@H](F)C(=O)N[C@@H]1COc1nccc2cc(C(N)=O)c(OC)cc12 [ZIMLOVISERTIB] gave a % of inhibition [19] of 75.5%.
